PubChem BioAssay AID1919001 (Molecular Pharmacology Branch, DTP, NCI, 2023)

Test system: 699152-130-R-J1-PDC complex spheroid growth
Test: Anticancer human tumor 699152-130-R-J1-PDC patient-derived pancreatic carcinoma cell line growth inhibition [AhR]
Details: for IC50: curve of first compound; for viability, T/C: stronger effect = lower value
From the text: Multicellular complex tumor spheroid response to aryl hydrocarbon receptor antagonists in combination with a variety of drugs and investigational agents in selected tumor cell lines
The current study was undertaken to assess response to aryl hydrocarbon receptor antagonists in combination with standard-of-care drugs and investigational agents in solid tumor complex spheroid models. Complex spheroids include a stromal component modeled by human endothelial cells (HUVEC) and fibroblasts modeled by human mesenchymal stem cells (MSCs). The concentration ranges selected for each drug and investigational agent were based upon clinically achievable concentrations if the clinical Cmax of the agent was known.
Compounds. The drugs and investigational agents: BAY 2416964 (NSC825713), GNF351 (NSC835774), CH-223191 (NSC835775), CPI-455 (NSC825282), aza-TdCyd (NSC777586), decitabine (NSC127716), belinostat (NSC758774), entinostat (NSC756642), pevonedistat (NSC761192), tazemetostat (NSC777109), talazoparib (NSC765396), olaparib (NSC753686), selinexor (NSC780203), nedisertib (M3814, NSC802822), bortezomib (NSC756655), venetoclax (NSC766270), doxorubicin (NSC123127), elimusertib (BAY189344, NSC800525), ceralasertib (AZD6738, NSC777638), TAK-243 (NSC785004), alisertib (NSC759677), etoposide (NSC141540), topotecan (NSC609699), eribulin (NSC707389), gemcitabine (NSC613327), carboplatin (NSC241240), cisplatin (NSC119875), and SN-38 (NSC673596) were obtained from the National Cancer Institute (NCI) Developmental Therapeutics Program Chemical Repository (32). The FDA-approved anticancer drug set is available from the Developmental Therapeutics Program at https://dtp.cancer.gov/organization/dscb/obtaining/available plates.htm. […] The stock solutions were prepared in dimethyl sulfoxide (DMSO, Sigma-Aldrich, St. Louis, MO, cat. D2650), except for the platinum compounds which were prepared in saline (Quality Biological, Gaithersburg, MD, cat. 114-055-101), at 800-fold the tested concentration and stored at -70 degrees C prior to their use. All drugs and investigational agents were tested over a range starting from a high concentration at or near the clinical Cmax and decreasing in half-log increments. If the clinical Cmax for an agent had not been determined, the highest concentration tested was 10 microM (Table 1).
Cell Culture. All cells were maintained in an incubator at 37 degrees C and 5% CO2 with 95% humidity. The PDC lines were cultured according to standard operating procedures established by the NCI PDMR (https://pdmr.cancer.gov). Briefly, all PDCs were thawed and cultured in Matrigel-coated flasks prepared with a working solution of 1X Ham's F-12 nutrient mix, without supplementation (Invitrogen, Waltham, MA, cat. 11765054), 100 U/mL penicillin-streptomycin (Invitrogen, cat. 15140122), and 2.5% Matrigel (Corning Inc., Corning, NY, cat. 354248) for the first three passages. All PDCs were cultured in complete DMEM/F-12 media containing advanced DMEM/F-12 (Invitrogen, cat. 12634028), 4.9% defined fetal bovine serum, heat inactivated (HyClone Laboratories Inc., Logan, UT, cat. SH30070.03HI), 389 ng/mL hydrocortisone (Sigma-Aldrich, cat. H4001), 9.7 ng/mL human EGF recombinant protein (Invitrogen, cat. PHG0313), 23.4 microg/mL adenine (Sigma-Aldrich, cat. A2786), 97.3 U/mL penicillin-streptomycin (Invitrogen, cat. 15140122), 1.9 mM L-glutamine (Invitrogen, cat. 25030081), and 9.7 microM Y-27632 dihydrochloride (Tocris Bioscience, Bristol, United Kingdom, cat. 1254). The PDCs were cultured in complete DMEM/F12 media without 10 microM Y-27632 dihydrochloride for at least two passages prior to the screen. The established cell lines NCI-H1341 and […] were cultured in DMEM/F-12, HEPES (Invitrogen, cat. 11330032), 5% defined fetal bovine serum (HyClone Laboratories Inc., cat. SH30070.03), ITS premix universal culture supplement [insulin (5 microg/mL), transferrin (5 microg/mL), and selenious acid (5 ng/mL)] […]

[1] = second compound 0.1 µM, first compound 0.0316 µM
[2] = second compound 0.1 µM, first compound 0.1 µM
[3] = second compound 0.1 µM, first compound 0.316 µM
[4] = second compound 0.1 µM, first compound 1 µM
[5] = second compound 0.1 µM, first compound 3.16 µM
[6] = second compound 0.1 µM, first compound 10 µM
[7] = second compound 0.316 µM, first compound 0.0316 µM
[8] = second compound 0.316 µM, first compound 0.1 µM
[9] = second compound 0.316 µM, first compound 0.316 µM
[10] = second compound 0.316 µM, first compound 1 µM
[11] = second compound 0.316 µM, first compound 3.16 µM
[12] = second compound 0.316 µM, first compound 10 µM
[13] = second compound 1 µM, first compound 0.0316 µM
[14] = second compound 1 µM, first compound 0.1 µM
[15] = second compound 1 µM, first compound 0.316 µM
[16] = second compound 1 µM, first compound 1 µM
[17] = second compound 1 µM, first compound 3.16 µM
[18] = second compound 1 µM, first compound 10 µM
[19] = second compound 3.16 µM, first compound 0.0316 µM
[20] = second compound 3.16 µM, first compound 0.1 µM
[21] = second compound 3.16 µM, first compound 0.316 µM
[22] = second compound 3.16 µM, first compound 1 µM
[23] = second compound 3.16 µM, first compound 3.16 µM
[24] = second compound 3.16 µM, first compound 10 µM
[25] = second compound 10 µM, first compound 0.0316 µM
[26] = second compound 10 µM, first compound 0.1 µM
[27] = second compound 10 µM, first compound 0.316 µM
[28] = second compound 10 µM, first compound 1 µM
[29] = second compound 10 µM, first compound 3.16 µM
[30] = second compound 10 µM, first compound 10 µM
[31] = second compound 0.1 µM, first compound 0.00316 µM
[32] = second compound 0.1 µM, first compound 0.01 µM
[33] = second compound 0.316 µM, first compound 0.00316 µM
[34] = second compound 0.316 µM, first compound 0.01 µM
[35] = second compound 1 µM, first compound 0.00316 µM
[36] = second compound 1 µM, first compound 0.01 µM
[37] = second compound 3.16 µM, first compound 0.00316 µM
[38] = second compound 3.16 µM, first compound 0.01 µM
[39] = second compound 10 µM, first compound 0.00316 µM
[40] = second compound 10 µM, first compound 0.01 µM
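Also: compound exposure lasted 7 days after spheroids had grown for 3 days.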

COc1cc(Nc2ncc3c(n2)-c2ccc(Cl)cc2C(c2c(F)cccc2OC)=NC3)ccc1C(=O)O + Cc1cncc(-c2nc(NCCc3c[nH]c4ccccc34)c3ncn(C(C)C)c3n2)c1
IC50 (second compound 0.1 µM): > 10000 nM | IC50 (second compound 0.316 µM): > 10000 nM | IC50 (second compound 1 µM): > 10000 nM | IC50 (second compound 3.16 µM): > 10000 nM | IC50 (second compound 10 µM): < 31.6 nM | viability, T/C [1]: 80.3% | viability, T/C [2]: 77.1% | viability, T/C [3]: 73.4% | viability, T/C [4]: 56.5% | viability, T/C [5]: 56.1% | viability, T/C [6]: 57.1% | viability, T/C [7]: 76.2% | viability, T/C [8]: 81% | viability, T/C [9]: 72.4% | viability, T/C [10]: 59.8% | viability, T/C [11]: 55.9% | viability, T/C [12]: 54.8% | viability, T/C [13]: 95.5% | viability, T/C [14]: 85.3% | viability, T/C [15]: 79.5% | viability, T/C [16]: 69% | viability, T/C [17]: 59.7% | viability, T/C [18]: 55.5% | viability, T/C [19]: 92.5% | viability, T/C [20]: 80.9% | viability, T/C [21]: 84.8% | viability, T/C [22]: 64.6% | viability, T/C [23]: 64.2% | viability, T/C [24]: 57.9% | viability, T/C [25]: 23.8% | viability, T/C [26]: 21.3% | viability, T/C [27]: 21.3% | viability, T/C [28]: 16.9% | viability, T/C [29]: 16.3% | viability, T/C [30]: 22.3%

COc1cc(C2c3cc4c(cc3C(OC3OC5COC(C)OC5C(O)C3O)C3COC(=O)C23)OCO4)cc(OC)c1O (stereo not given) + Cc1cncc(-c2nc(NCCc3c[nH]c4ccccc34)c3ncn(C(C)C)c3n2)c1
IC50 (second compound 0.1 µM): > 10000 nM | IC50 (second compound 0.316 µM): 7660 nM | IC50 (second compound 1 µM): 9210 nM | IC50 (second compound 3.16 µM): 2700 nM | IC50 (second compound 10 µM): < 31.6 nM | viability, T/C [1]: 106% | viability, T/C [2]: 98% | viability, T/C [3]: 70.1% | viability, T/C [4]: 70.3% | viability, T/C [5]: 58% | viability, T/C [6]: 52.6% | viability, T/C [7]: 104% | viability, T/C [8]: 89.5% | viability, T/C [9]: 80.2% | viability, T/C [10]: 67.4% | viability, T/C [11]: 58.9% | viability, T/C [12]: 46.8% | viability, T/C [13]: 99.6% | viability, T/C [14]: 97.2% | viability, T/C [15]: 74.9% | viability, T/C [16]: 77.5% | viability, T/C [17]: 63.6% | viability, T/C [18]: 47.4% | viability, T/C [19]: 106% | viability, T/C [20]: 91.3% | viability, T/C [21]: 70.1% | viability, T/C [22]: 60.6% | viability, T/C [23]: 48.5% | viability, T/C [24]: 41.7% | viability, T/C [25]: 0.93% | viability, T/C [26]: 1.13% | viability, T/C [27]: 1.96% | viability, T/C [28]: 1.2% | viability, T/C [29]: 1.07% | viability, T/C [30]: 4.92%

Nc1ncn(C2CC(O)C(CO)O2)c(=O)n1 (stereo not given) + CC(CO)NC(=O)c1cc(-c2ccc(Cl)cc2)nn(-c2cnn(C)c2)c1=O
IC50 (second compound 0.1 µM): > 1000 nM | IC50 (second compound 0.316 µM): > 1000 nM | IC50 (second compound 1 µM): > 1000 nM | IC50 (second compound 3.16 µM): > 1000 nM | IC50 (second compound 10 µM): > 1000 nM | viability, T/C [31]: 90.2% | viability, T/C [32]: 100% | viability, T/C [1]: 97% | viability, T/C [2]: 102% | viability, T/C [3]: 96.9% | viability, T/C [4]: 93.3% | viability, T/C [33]: 89.5% | viability, T/C [34]: 100% | viability, T/C [7]: 86.7% | viability, T/C [8]: 87.2% | viability, T/C [9]: 87.8% | viability, T/C [10]: 72.2% | viability, T/C [35]: 112% | viability, T/C [36]: 103% | viability, T/C [13]: 107% | viability, T/C [14]: 87.7% | viability, T/C [15]: 77.7% | viability, T/C [16]: 82.3% | viability, T/C [37]: 75.4% | viability, T/C [38]: 87.6% | viability, T/C [19]: 82.2% | viability, T/C [20]: 82.1% | viability, T/C [21]: 81% | viability, T/C [22]: 70% | viability, T/C [39]: 85.8% | viability, T/C [40]: 85.3% | viability, T/C [25]: 79.9% | viability, T/C [26]: 70% | viability, T/C [27]: 66.6% | viability, T/C [28]: 77.1%

Cn1ncnc1C1c2n[nH]c(=O)c3cc(F)cc(c23)NC1c1ccc(F)cc1 (stereo not given) + CC(CO)NC(=O)c1cc(-c2ccc(Cl)cc2)nn(-c2cnn(C)c2)c1=O
IC50 (second compound 0.1 µM): > 100 nM | IC50 (second compound 0.316 µM): > 100 nM | IC50 (second compound 1 µM): > 100 nM | IC50 (second compound 3.16 µM): > 100 nM | IC50 (second compound 10 µM): > 100 nM | viability, T/C (second compound 0.1 µM, first compound 0.000316 µM): 102% | viability, T/C (second compound 0.1 µM, first compound 0.001 µM): 113% | viability, T/C [31]: 104% | viability, T/C [32]: 108% | viability, T/C [1]: 102% | viability, T/C [2]: 98.9% | viability, T/C (second compound 0.316 µM, first compound 0.000316 µM): 105% | viability, T/C (second compound 0.316 µM, first compound 0.001 µM): 102% | viability, T/C [33]: 120% | viability, T/C [34]: 103% | viability, T/C [7]: 86.2% | viability, T/C [8]: 103% | viability, T/C (second compound 1 µM, first compound 0.000316 µM): 101% | viability, T/C (second compound 1 µM, first compound 0.001 µM): 99.3% | viability, T/C [35]: 102% | viability, T/C [36]: 101% | viability, T/C [13]: 101% | viability, T/C [14]: 102% | viability, T/C (second compound 3.16 µM, first compound 0.000316 µM): 91.5% | viability, T/C (second compound 3.16 µM, first compound 0.001 µM): 95.3% | viability, T/C [37]: 97.6% | viability, T/C [38]: 96.9% | viability, T/C [19]: 92.9% | viability, T/C [20]: 84.2% | viability, T/C (second compound 10 µM, first compound 0.000316 µM): 95.4% | viability, T/C (second compound 10 µM, first compound 0.001 µM): 81.3% | viability, T/C [39]: 91% | viability, T/C [40]: 85.5% | viability, T/C [25]: 80.1% | viability, T/C [26]: 79.5%
